Measurements: ChEMBL document CHEMBL3286108, “Novel arylsulfonamide derivatives with 5-HT₆/5-HT₇ receptor antagonism targeting behavioral and psychological symptoms of dementia” (J Med Chem, 2014)
Active and inactive are the calls of the source. No cut-off for these calls is given here.

What was measured:
[1] = target: T1, 5-hydroxytryptamine receptor 7 (Homo sapiens, UniProt P34969); assay: Antagonist activity at human 5-HT7 receptor expressed in CHO-K1 cells assessed as inhibition of serotonin-induced cAMP accumulation after 60 mins by TR-FRET immunoassay; assay type: functional, cell-based
T1 sequence (P34969 whole entry): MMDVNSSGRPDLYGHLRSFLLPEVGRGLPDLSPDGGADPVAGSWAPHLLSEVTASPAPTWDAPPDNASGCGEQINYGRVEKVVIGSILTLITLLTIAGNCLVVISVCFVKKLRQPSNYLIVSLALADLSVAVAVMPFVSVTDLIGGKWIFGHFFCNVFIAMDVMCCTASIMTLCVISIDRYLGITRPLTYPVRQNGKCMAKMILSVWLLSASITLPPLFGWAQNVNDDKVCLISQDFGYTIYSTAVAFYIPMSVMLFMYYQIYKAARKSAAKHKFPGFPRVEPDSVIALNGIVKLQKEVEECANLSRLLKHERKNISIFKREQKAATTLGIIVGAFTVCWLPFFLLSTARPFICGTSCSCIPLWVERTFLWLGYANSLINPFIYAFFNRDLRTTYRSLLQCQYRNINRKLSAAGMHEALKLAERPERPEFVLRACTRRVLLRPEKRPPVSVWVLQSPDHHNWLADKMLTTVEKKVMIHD

[2] = target: hERG (KCNH2) potassium channel (Homo sapiens, UniProt Q12809); assay: in vitro; conditions: CHO cells expressing human cloned ERG
hERG (KCNH2) potassium channel, sequence (Q12809 whole entry): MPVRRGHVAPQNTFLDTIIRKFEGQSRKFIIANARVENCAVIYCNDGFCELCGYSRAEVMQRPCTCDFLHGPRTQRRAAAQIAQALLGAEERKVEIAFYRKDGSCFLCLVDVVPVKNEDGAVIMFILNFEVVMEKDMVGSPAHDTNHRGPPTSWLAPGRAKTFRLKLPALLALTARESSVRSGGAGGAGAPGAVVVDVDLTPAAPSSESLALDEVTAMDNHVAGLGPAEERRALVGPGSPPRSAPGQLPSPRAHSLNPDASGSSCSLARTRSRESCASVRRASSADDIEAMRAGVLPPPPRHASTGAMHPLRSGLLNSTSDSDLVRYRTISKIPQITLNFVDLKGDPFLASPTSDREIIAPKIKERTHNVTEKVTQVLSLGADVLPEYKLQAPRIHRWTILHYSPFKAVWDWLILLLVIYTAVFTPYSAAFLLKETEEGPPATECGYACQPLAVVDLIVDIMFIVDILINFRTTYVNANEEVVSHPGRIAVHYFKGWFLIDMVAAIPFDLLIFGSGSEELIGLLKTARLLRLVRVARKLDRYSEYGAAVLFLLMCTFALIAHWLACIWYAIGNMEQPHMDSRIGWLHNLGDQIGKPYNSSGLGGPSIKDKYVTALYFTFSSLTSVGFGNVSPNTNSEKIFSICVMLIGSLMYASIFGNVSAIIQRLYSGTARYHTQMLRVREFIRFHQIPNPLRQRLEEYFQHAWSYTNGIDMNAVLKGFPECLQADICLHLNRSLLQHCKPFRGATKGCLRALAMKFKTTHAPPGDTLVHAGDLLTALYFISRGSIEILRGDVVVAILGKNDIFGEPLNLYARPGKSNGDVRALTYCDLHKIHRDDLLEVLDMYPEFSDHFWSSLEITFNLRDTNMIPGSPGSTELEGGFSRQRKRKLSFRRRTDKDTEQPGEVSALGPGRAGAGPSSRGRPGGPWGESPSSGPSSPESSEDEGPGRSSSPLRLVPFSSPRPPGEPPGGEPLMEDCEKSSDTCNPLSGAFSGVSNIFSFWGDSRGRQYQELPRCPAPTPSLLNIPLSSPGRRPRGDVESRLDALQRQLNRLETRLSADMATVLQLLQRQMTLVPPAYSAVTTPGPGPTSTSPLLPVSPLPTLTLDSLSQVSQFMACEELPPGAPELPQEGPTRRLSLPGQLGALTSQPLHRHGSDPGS

[3] = target: T2, 5-hydroxytryptamine receptor 6 (Homo sapiens, UniProt P50406); assay: Agonist activity at human recombinant 5-HT6 receptor expressed in CHO-K1 cells by luminescence analysis; assay type: cell-based
T2 sequence (P50406 whole entry): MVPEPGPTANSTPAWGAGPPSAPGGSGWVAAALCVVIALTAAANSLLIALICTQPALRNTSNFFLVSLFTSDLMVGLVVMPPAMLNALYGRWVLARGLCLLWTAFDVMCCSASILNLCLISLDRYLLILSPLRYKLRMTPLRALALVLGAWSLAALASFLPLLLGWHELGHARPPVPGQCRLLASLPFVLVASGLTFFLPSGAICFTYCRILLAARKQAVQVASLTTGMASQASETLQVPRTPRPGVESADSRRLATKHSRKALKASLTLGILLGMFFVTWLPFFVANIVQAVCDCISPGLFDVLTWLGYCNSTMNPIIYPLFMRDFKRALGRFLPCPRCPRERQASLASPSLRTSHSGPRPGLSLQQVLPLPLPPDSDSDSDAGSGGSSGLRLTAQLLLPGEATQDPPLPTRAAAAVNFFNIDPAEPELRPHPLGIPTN

[4] = target: T2, 5-hydroxytryptamine receptor 6; assay: biochemical
[5] = target: T1, 5-hydroxytryptamine receptor 7; assay: Agonist activity at human 5-HT7 receptor expressed in CHO-K1 cells assessed as cAMP accumulation after 60 mins by TR-FRET immunoassay; assay type: functional, cell-based
D(2) dopamine receptor [6] = target: T3, D(2) dopamine receptor (Homo sapiens, UniProt P14416); assay: biochemical
T3 sequence (P14416 whole entry): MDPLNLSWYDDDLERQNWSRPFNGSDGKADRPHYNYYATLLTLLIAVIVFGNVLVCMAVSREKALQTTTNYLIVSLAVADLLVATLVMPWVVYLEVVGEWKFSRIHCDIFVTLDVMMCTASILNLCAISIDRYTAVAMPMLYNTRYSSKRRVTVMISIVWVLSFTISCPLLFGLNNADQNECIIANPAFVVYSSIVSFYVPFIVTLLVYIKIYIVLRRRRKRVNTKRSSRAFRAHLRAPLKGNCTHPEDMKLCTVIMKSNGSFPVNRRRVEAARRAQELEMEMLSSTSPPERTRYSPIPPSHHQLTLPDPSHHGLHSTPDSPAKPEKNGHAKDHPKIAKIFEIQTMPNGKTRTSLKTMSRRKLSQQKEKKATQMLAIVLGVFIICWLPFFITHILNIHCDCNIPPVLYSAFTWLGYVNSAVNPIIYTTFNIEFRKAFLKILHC

[7] = target: T4, 5-hydroxytryptamine receptor 2A (Homo sapiens, UniProt P28223); assay: Agonist activity at human recombinant 5-HT2A receptor expressed in CHO-K1 cells by luminescence analysis; assay type: cell-based
T4 sequence (P28223 whole entry): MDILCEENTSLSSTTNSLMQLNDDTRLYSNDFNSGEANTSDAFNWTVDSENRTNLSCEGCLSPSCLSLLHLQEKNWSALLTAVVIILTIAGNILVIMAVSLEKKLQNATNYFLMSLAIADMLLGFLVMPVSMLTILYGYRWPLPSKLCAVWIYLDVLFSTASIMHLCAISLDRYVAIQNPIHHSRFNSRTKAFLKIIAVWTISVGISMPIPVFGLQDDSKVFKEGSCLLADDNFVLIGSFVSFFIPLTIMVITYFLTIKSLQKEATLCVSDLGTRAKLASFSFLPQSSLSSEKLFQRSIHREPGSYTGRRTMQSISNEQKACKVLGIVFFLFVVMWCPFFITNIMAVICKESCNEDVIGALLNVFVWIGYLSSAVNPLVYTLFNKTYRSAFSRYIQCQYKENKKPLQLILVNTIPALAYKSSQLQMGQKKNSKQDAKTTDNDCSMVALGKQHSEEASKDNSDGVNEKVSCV

[8] = target: T4, 5-hydroxytryptamine receptor 2A; assay: biochemical; assay type: cell-based, CHO-K1
[9] = target: T5, Muscarinic acetylcholine receptor M1 (Homo sapiens) (UniProt P11229); assay: Displacement of [3H]pirenzepine from human recombinant M1 receptor expressed in CHO cells at 1 uM; assay type: cell-based
T5 sequence (whole entry): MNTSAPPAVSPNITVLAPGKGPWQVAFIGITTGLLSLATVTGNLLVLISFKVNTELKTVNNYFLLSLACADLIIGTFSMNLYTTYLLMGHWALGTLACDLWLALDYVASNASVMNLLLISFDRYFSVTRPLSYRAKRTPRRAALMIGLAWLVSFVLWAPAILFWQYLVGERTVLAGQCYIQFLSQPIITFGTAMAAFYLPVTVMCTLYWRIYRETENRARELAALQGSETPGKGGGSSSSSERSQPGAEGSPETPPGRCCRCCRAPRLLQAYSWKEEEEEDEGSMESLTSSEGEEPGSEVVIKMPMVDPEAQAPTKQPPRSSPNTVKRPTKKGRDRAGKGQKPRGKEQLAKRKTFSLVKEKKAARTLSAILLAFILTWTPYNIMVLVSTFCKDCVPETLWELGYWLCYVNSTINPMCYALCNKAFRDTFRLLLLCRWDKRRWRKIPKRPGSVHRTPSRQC

[10] = target: T4, 5-hydroxytryptamine receptor 2A; assay: Antagonist activity at human recombinant 5-HT2A receptor expressed in CHO-K1 cells assessed as inhibition of alpha-methyl serotonin-induced response treated 15 to 30 mins before agonist challenge by luminescence analysis; assay type: cell-based
[11] = target: T2, 5-hydroxytryptamine receptor 6; assay: Antagonist activity at human recombinant 5-HT6 receptor expressed in CHO-K1 cells assessed as inhibition of serotonin-induced response treated 15 to 30 mins before agonist challenge by luminescence analysis; assay type: cell-based
D(2) dopamine receptor [12] = target: T3, D(2) dopamine receptor; assay: Agonist activity at human recombinant D2 receptor expressed in CHO-K1 cells by luminescence analysis; assay type: cell-based
[13] = target: T1, 5-hydroxytryptamine receptor 7; assay: biochemical; assay type: cell-based, CHO-K1

| SMILES | Kb [1] [nM] | Activity [3] | Ki [4] [nM] | Activity [5] | Ki (D(2) dopamine receptor [6]) [nM] | Activity [7] | Ki [8] [nM] | inhibition [9] [%] | Kb [10] [nM] | Kb [11] [nM] | Activity (D(2) dopamine receptor [12]) | Ki [13] [nM] | inhibition at 1 µM [2] [%] |
| --- | --- | --- | --- | --- | --- | --- | --- | --- | --- | --- | --- | --- | --- |
| O=S(=O)(NCCCCN1CCC(c2noc3cc(F)ccc23)CC1)c1cccc2ccccc12 | 3 | inactive | 8.8 | inactive | 3 | inactive | 0.6 | 0 | 76 | 17 | inactive | 0.8 | 24 |
| Cc1c(S(=O)(=O)NCCCCN2CCC(c3noc4cc(F)ccc34)CC2)sc2ccc(Cl)cc12 | 5.6 | inactive | 1.8 | inactive | 1.5 | inactive | 1 | 19 | 9.5 | 22 | inactive | 0.7 | 0 |
| O=S(=O)(NCCCCN1CCN(c2noc3ccccc23)CC1)c1ccc2ccccc2c1 | 9.2 | inactive | 6.2 | inactive | 15 | inactive | 0.7 | -3 | 11 | 11 | inactive | 0.8 | 0 |
| O=S(=O)(NCCCCN1CCC(c2noc3cc(F)ccc23)CC1)c1ccc2ccccc2c1 | 8.8 | inactive | 2.4 | inactive | 1.1 | inactive | 1.7 | 0 | 14 | 3.8 | inactive | 1.4 | 30 |
| O=S(=O)(NCCCN1CCC(c2noc3cc(F)ccc23)CC1)c1ccc(Cl)c(Cl)c1 | 2.1 | inactive | 7.1 | inactive | 14 | inactive | 2.2 | -3 | 23 | 12 | inactive | 1.2 | 69 |
| Cc1c(S(=O)(=O)NCCCCN2CCC(c3noc4cc(F)ccc34)CC2)sc2ccc(F)cc12 | 2.2 | inactive | 3.4 | inactive | 1.9 | inactive | 0.7 | 22 | 5 | 14 | inactive | 0.2 | 14 |

More lines, in order of falling Ki [4], values ahead:

| Kb [1] [nM] | Activity [3] | Ki [4] [nM] | Activity [5] | Ki (D(2) dopamine receptor [6]) [nM] | Activity [7] | Ki [8] [nM] | inhibition [9] [%] | Kb [10] [nM] | Kb [11] [nM] | Activity (D(2) dopamine receptor [12]) | Ki [13] [nM] | SMILES | inhibition at 1 µM [2] [%] |
| --- | --- | --- | --- | --- | --- | --- | --- | --- | --- | --- | --- | --- | --- |
| 44 | inactive | 5 | inactive | 0.9 | inactive | 1.5 | -5 | 110 | 7.6 | inactive | 1.8 | O=S(=O)(NCCCCN1CCN(c2nsc3ccccc23)CC1)c1ccc2ccccc2c1 | 14 |
| 2.8 | inactive | 3.3 | inactive | 1.2 | inactive | 0.8 | 23 | 55 | 21 | inactive | 1.3 | O=S(=O)(NCCCCN1CCC(c2noc3cc(F)ccc23)CC1)c1cc2ccc(Cl)cc2s1 | 18 |
| 1 | inactive | 2.4 | inactive | 1 | inactive | 0.6 | – | 6.5 | 8.3 | inactive | 3.2 | O=S(=O)(NCCCCN1CCC(c2noc3cc(F)ccc23)CC1)c1ccc2cc(Cl)ccc2c1 | – |
